We go through five compounds from patent publication US8679859B2, “Method for functionalizing materials and devices comprising such materials” (State of Oregon by and through the State Board of Higher …, priority 2007, dated 2014).

One assay deals with T1, peanut agglutinin (PNA) (Arachis hypogaea, UniProt P02872).
T1 construct: purchased Molecular Probes
T1 sequence (P02872 24-273): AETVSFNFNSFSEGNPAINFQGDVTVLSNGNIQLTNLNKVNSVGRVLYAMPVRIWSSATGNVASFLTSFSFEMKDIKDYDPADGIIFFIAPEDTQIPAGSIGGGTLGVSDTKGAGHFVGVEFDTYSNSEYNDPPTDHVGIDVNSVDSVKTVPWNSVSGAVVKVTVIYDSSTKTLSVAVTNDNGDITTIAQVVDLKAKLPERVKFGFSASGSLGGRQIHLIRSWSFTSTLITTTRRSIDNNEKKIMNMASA
The experiment in a line: Carbohydrate microarray on PEO-coated glass slides, fluorescence-tagged lectin binding. The conditions noted are these: lectin 10 μg/ml, FIG. 30.

Another assay concerns the target soybean agglutinin (SBA) (Glycine max, UniProt P05046). The assay is described as above. Particulars: lectin 10 μg/ml, FIG. 32.
The next assay addresses T2, jack bean lectin (Con A) (Canavalia ensiformis, UniProt P02866).
T2 construct: purchased Molecular Probes
The assay is described as above. The conditions noted are these: lectin 10 μg/ml, FIG. 31.

The target in a further assay is Con A (Canavalia ensiformis, UniProt P02866). Particulars: free carbohydrate with Con A, isothermal microcalorimetry, Mandal et al.; cited from earlier work.

soybean agglutinin (SBA), sequence (P05046 33-285): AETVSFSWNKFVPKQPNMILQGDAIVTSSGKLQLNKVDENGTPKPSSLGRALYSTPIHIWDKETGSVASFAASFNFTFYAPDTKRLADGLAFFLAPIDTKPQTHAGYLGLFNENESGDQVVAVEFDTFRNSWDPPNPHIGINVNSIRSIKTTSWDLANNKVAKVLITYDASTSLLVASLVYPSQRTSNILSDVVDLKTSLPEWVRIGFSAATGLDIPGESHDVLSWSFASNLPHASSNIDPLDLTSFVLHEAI
Procedure for soybean agglutinin (SBA): The slides were subsequently irradiated under UV (7 min), and washed with PBS (pH 7.4) containing 0.1% Tween® 20 for 30 minutes and then rinsed with water to remove excess carbohydrates. After drying under a stream of nitrogen, the slides were first incubated with a solution of PBS (pH 7.4) containing 0.1% Tween® 20 and 3% BSA (w/v) for 30 minutes, and then washed with PBS (pH 7.4) containing 0.1% Tween® 20 for 20 minutes. After drying under a stream of nitrogen, the slides were incubated with Alexa Fluo 647-labeled lectins (10 μg/ml) in PBS (pH 7.4) containing 0.1% Tween® 20 overnight at room temperature. The unbound lectins were removed by gentle shaking in the same buffer for 20 minutes, after which time the slides were scanned (Ex: 633 nm; Em: 650-750 nm).
Following array preparation, binding analysis of the surfaces was performed. Fluorescence-tagged lectins were used, and fluorescence imaging was employed in developing the array binding patterns. Four different lectins were assayed: Griffonia simplicifolia II (GSII), peanut agglutinin (PNA), jack bean lectin (Con A), and soybean agglutinin (SBA).

For cellobiose, the “PNA binding pattern on microarray (fluorescence)” value on peanut agglutinin (PNA) is “lesser amounts of binding”.
`[N-]=[N+]=Nc1c(F)c(F)c(C(=O)NCCOCCOCCO[C@@H]2OC(CO)[C@@H](O[C@@H]3OC(CO)[C@H](O)C(O)C3O)C(O)C2O)c(F)c1F` (stereo partly drawn) [lactose]: the “PNA binding pattern on microarray (fluorescence)” value at peanut agglutinin (PNA) is “primary ligand”. The “SBA binding pattern on microarray (fluorescence)” value at soybean agglutinin (SBA) is listed as “showed binding”.
For `[N-]=[N+]=Nc1c(F)c(F)c(C(=O)NCCOCCOCCO[C@H]2OC(CO)[C@@H](O)C(O)C2O)c(F)c1F` (stereo partly drawn) [α-D-mannoside structures], the “Con A binding pattern on microarray (fluorescence)” value on jack bean lectin (Con A) is “specificity of Con A for binding”.
`OC[C@H]1O[C@H](O[C@H]2[C@H](O)[C@@H](CO)OC(O)[C@H]2O)[C@@H](O)[C@@H](O)[C@@H]1O` (stereo partly drawn) [α-1,3-mannobiose]: the Ka on Con A was 142000 M⁻¹.
Take `[N-]=[N+]=Nc1c(F)c(F)c(C(=O)NCCOCCOCCO[C@@H]2OC(CO)[C@@H](O)C(O)C2O)c(F)c1F` (stereo partly drawn) [β-D-glucoside]: at jack bean lectin (Con A), the “Con A binding pattern on microarray (fluorescence)” value is “low binding”.
